The subject of test [1] is ALPK1-dependent NFκB reporter gene activation in HEK293 cells stably expressing an NF-kB reporter (G9 cells). The experiment in a line: NFκB gene reporter alkaline phosphatase assay. Type of test: cell-based. Particulars: read-out: NFkB assay IC50. The source says: In embodiments, a compound of Formula I, or a subembodiment described herein, is an inhibitor of ALPK1 as measured, for example, in an in vitro kinase assay, or an assay designed to measure the activation of downstream targets of ALPK1 pathway activation, for example NFkB transcriptional activation and the secretion of proinflammatory cytokines and chemokines, such as IL-8, which is also referred to as CXCL-8. In general, the computer program XL fit was used for data analysis, including non-linear regression analysis. The half maximal inhibitory concentration (IC50) was used as the measure of a compound's effectiveness in the assays. IC50 values were determined using the following logistic equation Y=min+(max−min)/(1+(X/IC50^−hillslpoe), where Y is the value at the compound concentration, X. The concentration response curve fitting was conducted using GraphPad Prism version 6.00 software.
An alkaline phosphatase reporter assay system was used to measure inhibition of ALPK1-dependent NFκB reporter gene activation. Briefly, HEK293 cells stably expressing an NF-kB reporter (referred to herein as “G9 cells”) were maintained in DMEM as described above. For the assay, cells were seeded into 96-well plates at a density of 10,000 cells/well in Freestyle™ 293 Expression Medium (ThermoFisher), and allowed to attach overnight. Cells were pretreated with serially diluted compounds for 30 min and then stimulated with D-glycero-D-manno-6-fluoro-heptose-1β-S-ADP. […] NFkB gene activation was detected using the chromogenic substrate, para-nitrophenyl phosphate (pNPP) according to the manufacturer's protocols (pNPP Phosphatase Assay, Beyotime Biotechnology).

For another test, the target named is ALPK1 (Homo sapiens (Human), UniProt Q96QP1). In words: ALPK1 in vitro kinase assay (HTRF of TIFA phosphorylation). Type of test: biochemical. For orientation: In TR-FRET formats the signal depends on donor and acceptor labels being close together.
Chain of ALPK1 (Q96QP1 whole entry): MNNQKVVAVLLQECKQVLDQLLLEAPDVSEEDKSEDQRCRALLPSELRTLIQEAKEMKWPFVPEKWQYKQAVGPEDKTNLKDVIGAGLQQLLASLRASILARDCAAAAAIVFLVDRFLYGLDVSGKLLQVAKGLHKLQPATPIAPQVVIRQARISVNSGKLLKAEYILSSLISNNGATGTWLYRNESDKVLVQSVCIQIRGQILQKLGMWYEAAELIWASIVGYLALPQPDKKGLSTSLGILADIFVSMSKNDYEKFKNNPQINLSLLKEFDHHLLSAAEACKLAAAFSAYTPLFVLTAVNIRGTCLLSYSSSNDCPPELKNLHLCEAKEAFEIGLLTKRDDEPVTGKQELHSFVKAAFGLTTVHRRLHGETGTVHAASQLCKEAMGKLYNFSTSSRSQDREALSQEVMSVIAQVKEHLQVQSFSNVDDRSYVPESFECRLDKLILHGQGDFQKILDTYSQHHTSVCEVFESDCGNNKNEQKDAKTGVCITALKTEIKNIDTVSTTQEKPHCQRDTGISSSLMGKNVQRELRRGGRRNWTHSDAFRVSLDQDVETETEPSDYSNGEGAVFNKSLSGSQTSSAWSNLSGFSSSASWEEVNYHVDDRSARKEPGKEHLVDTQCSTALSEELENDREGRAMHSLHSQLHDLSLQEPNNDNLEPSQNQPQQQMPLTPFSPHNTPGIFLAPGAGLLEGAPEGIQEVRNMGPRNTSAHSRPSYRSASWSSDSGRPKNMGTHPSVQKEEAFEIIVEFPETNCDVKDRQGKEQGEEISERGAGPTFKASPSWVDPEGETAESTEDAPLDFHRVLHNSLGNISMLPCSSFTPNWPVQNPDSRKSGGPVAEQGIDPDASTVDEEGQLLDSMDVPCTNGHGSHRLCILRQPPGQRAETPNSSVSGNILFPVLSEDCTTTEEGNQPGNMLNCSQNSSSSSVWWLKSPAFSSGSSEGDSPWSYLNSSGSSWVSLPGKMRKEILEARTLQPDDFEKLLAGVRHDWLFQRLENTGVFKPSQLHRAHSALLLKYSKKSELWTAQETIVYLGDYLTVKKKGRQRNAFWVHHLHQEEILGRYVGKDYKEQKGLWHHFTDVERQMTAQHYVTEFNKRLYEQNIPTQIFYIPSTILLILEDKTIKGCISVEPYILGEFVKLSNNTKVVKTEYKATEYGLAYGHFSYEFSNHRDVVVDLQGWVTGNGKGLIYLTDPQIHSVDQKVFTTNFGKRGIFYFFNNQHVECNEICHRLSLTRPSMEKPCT
[2] abbreviates: ALPK1 2 nM, TIFA substrate, ADP-Heptose activator, HTRF readout.

Each structure is given as a SMILES string. pIC50: −log10 of the molar value. Counter-ions that a name gives are not always drawn. Like-named read-outs stand apart in the source and are kept apart here.

The pIC50 is the negative decadic logarithm of the IC50, by convention in mol/L.

Turning to `CC(C)(c1ccc(Br)cc1)c1csc(NC(=O)NCc2ccc(C3CCNCC3)c(F)c2)n1` [Example A222, 1-(4-(2-(4-bromophenyl)propan-2-yl)thiazol-2-yl)-3-(3-fluoro-4-(piperidin-4-yl)benzyl)urea], the pIC50 in test [1] (Homo sapiens, HEK293) was 6.03.

`C#C[C@](C)(c1ccc(Cl)cc1)c1csc(NC(=O)NCC(C)O)n1` (stereo in doubt) [Example A318, 1-(4-(2-(4-chlorophenyl)but-3-yn-2-yl)thiazol-2-yl)-3-(2-hydroxypropyl)urea]: the negative-log IC50 (pIC50) in test [1] is 5.65.

Regarding `CC(C)(c1ccc(Br)cc1)c1csc(NC(=O)NCc2ccc(N3CCNCC3)c(Br)c2)n1` [Example A097, 1-(3-bromo-4-(piperazin-1-yl)benzyl)-3-(4-(2-(4-bromophenyl)propan-2-yl)thiazol-2-yl)urea], the negative logarithm of the IC50 (pIC50) in test [1] (Homo sapiens, HEK293) was 5.85.

`C#C[C@@](C)(c1ccc(Cl)cc1)c1csc(NC(=O)N2CCc3cc(N4CCNCC4)ccc3C2)n1` [Example A260, (S)-N-(4-(2-(4-chlorophenyl)but-3-yn-2-yl)thiazol-2-yl)-6-(piperazin-1-yl)-3,4-dihydroisoquinoline-2(1H)-carboxamide]: in test [1] (Homo sapiens, HEK293), the pIC50 was 5.97.

On to `COc1ccc(C(C)(C)c2csc(NC(=O)NCCCCNc3ccccc3)n2)cc1` [Example A147, 1-(4-(2-(4-methoxyphenyl)propan-2-yl)thiazol-2-yl)-3-(4-(phenylamino)butyl)urea], for which, in test [1] (Homo sapiens, HEK293), the negative-log IC50 (pIC50) is 5.72.

As for `C#C[C@@](C)(c1ccc(Cl)cc1)c1csc(NC(=O)N2CCc3cc(N4CCNCC4)ccc3C2)n1` [Example A281, N-(4-(2-(4-chlorophenyl)but-3-yn-2-yl)thiazol-2-yl)-6-(piperazin-1-l)-3,4-dihydroisoquinoline-2(1H)-carboxamide], in test [1], the pIC50 was 6.07.

Regarding `C#C[C@](C)(c1ccc(Cl)cc1)c1csc(NC(=O)N2CCc3cc(N4CCNCC4)ccc3C2)n1` (stereo in doubt) [Example A280, N-(4-(2-(4-chlorophenyl)but-3-yn-2-yl)thiazol-2-yl)-6-(piperazin-1-yl)-3,4-dihydroisoquinoline-2(1H)-carboxamide], in test [1] (Homo sapiens, HEK293), the negative-log IC50 (pIC50) was 5.66.

Turning to `COc1ccc(C(C)(C)c2csc(NC(=O)NCc3cc(F)c(C4CCNCC4)c(F)c3)n2)cc1` [Example A151, 1-(3,5-difluoro-4-(piperidin-4-yl)benzyl)-3-(4-(2-(4-methoxyphenyl)propan-2-yl)thiazol-2-yl)urea hydrochloride], the negative logarithm of the IC50 (pIC50) in test [1] (Homo sapiens, HEK293) is 6.02.

In the case of `C#C[C@](C)(c1ccc(Cl)cc1)c1nc(NC(=O)NCCO)sc1Cl` [Example A248, (R)-1-(5-chloro-4-(2-(4-chlorophenyl)but-3-yn-2-yl)thiazol-2-yl)-3-(2-hydroxyethyl)urea], the pIC50 in test [1] (Homo sapiens, HEK293) was 5.56.

As to `CC(C)(c1ccc(Br)cc1)c1csc(NC(=O)NCc2cccc(N3CCNCC3)c2)n1` [Example A005, 1-(4-(2-(4-bromophenyl)propan-2-yl)thiazol-2-yl)-3-(3-(piperazin-1-yl)benzyl)urea], the negative-log IC50 (pIC50) in test [1] (Homo sapiens, HEK293) was 5.94.

For `COc1ccc(C(C)(CO)c2csc(NC(=O)NC(C)c3ccc(N4CCNCC4)cc3)n2)cc1` (stereo not shown) [Example A235, 1-(4-(1-hydroxy-2-(4-methoxyphenyl)propan-2-yl)thiazol-2-yl)-3-(1-(4-(piperazin-1-yl)phenyl)ethyl)urea], in test [1] (Homo sapiens, HEK293), the pIC50 was 4.57.

At ALPK1 (setting [2]), `COc1ccc(C(C)(C)c2csc(NC(=O)c3ccc(NCCN)cc3)n2)cc1` [Example B033, 4-((2-aminoethyl)amino)-N-(4-(2-(4-methoxyphenyl)propan-2-yl)thiazol-2-yl)benzamide] gave a pIC50 of 6.61.

Compound `COc1ccc(C(C)(C)c2csc(NC(=O)c3ccc(N4CCNCC4)c(OC)c3)n2)cc1` [Example B039, 3-methoxy-N-(4-(2-(4-methoxyphenyl)propan-2-yl)thiazol-2-yl)-4-(piperazin-1-yl)benzamide] had a negative logarithm of the IC50 (pIC50) at ALPK1 (setting [2]) of 6.91.

In the case of `CC1CNCCN1c1ccc(CNC(=O)Nc2nc(C(C)(C)c3ccc(Br)cc3)cs2)cc1` (stereo not shown) [Example A029, 1-(4-(2-(4-bromophenyl)propan-2-yl)thiazol-2-yl)-3-(4-(2-methylpiperazin-1-yl)benzyl)urea], the pIC50 at ALPK1 is 7.14.

On ALPK1 (setting [2]), `C#C[C@@](C)(c1ccc(F)cc1)c1csc(NC(=O)c2ccc(N3CCNCC3CO)cc2)n1` (stereo in doubt) [Example B069, N-[4-[1-(4-fluorophenyl)-1-methyl-prop-2-ynyl]thiazol-2-yl]-4-[2-(hydroxymethyl)piperazin-1-yl]benzamide] gave a negative-log IC50 (pIC50) of 7.70.

For the compound `C#CC(C)(c1ccc(Br)cc1)c1csc(NC(=O)[C@H]2C[C@H](CO)C2)n1` (mixture of isomers) [Example D005, rac-(1r,3r)-N-(4-(2-(4-bromophenyl)but-3-yn-2-yl)thiazol-2-yl)-3-(hydroxymethyl)cyclobutanecarboxamide], the negative-log IC50 (pIC50) against ALPK1 (setting [2]) is 7.01.

Turning to `Cc1ccc(C(C)(C)c2csc(NC(=O)c3ccc(CN4CCN(C)CC4)cc3)n2)cc1` [Example B046, 4-((4-methylpiperazin-1-yl)methyl)-N-(4-(2-(p-tolyl)propan-2-yl)thiazol-2-yl)benzamide], the pIC50 at ALPK1 (setting [2]) is 7.55.

Consider `CC(C)(c1ccc(Br)cc1)c1csc(NC(=O)c2ccc(N3CCNCC3)cc2)n1` [Example B016, N-(4-(2-(4-bromophenyl)propan-2-yl)thiazol-2-yl)-4-(piperazin-1-yl)benzamide], for which the pIC50 at ALPK1 (setting [2]) was 7.22.

Take `C#CC(C)(c1ccc(Cl)cc1)c1csc(NC(=O)c2c(F)cc(N3CCNCC3CC)cc2F)n1` (stereo not shown) [Example B101, N-(4-(2-(4-chlorophenyl)but-3-yn-2-yl)thiazol-2-yl)-4-(2-ethylpiperazin-1-yl)-2,6-difluorobenzamide]: the negative logarithm of the IC50 (pIC50) at ALPK1 (setting [2]) is 7.15.

`COc1ccc(C(C)(C)c2csc(NC(=O)c3ccc(N4CCC(N)C4)nc3)n2)cc1` (stereo not shown) [Example B043, 6-(3-aminopyrrolidin-1-yl)-N-(4-(2-(4-methoxyphenyl)propan-2-yl)thiazol-2-yl)nicotinamide] gave a negative logarithm of the IC50 (pIC50) against ALPK1 (setting [2]) of 6.85.

`C#C[C@](C)(c1ccc(Cl)cc1)c1csc(NC(=O)c2ccc(N3CCNC(CO)C3)cc2)n1` (stereo partly shown) [Example B078, N-(4-(2-(4-chlorophenyl)but-3-yn-2-yl)thiazol-2-y1)-4-(3-(hydroxymethyl)piperazin-1-yl)benzamide] showed a pIC50 on ALPK1 (setting [2]) of 6.77.

Compound `C#CC(C)(c1ccc(Cl)cc1)c1c[nH]c(NC(=O)c2c(F)cc(N3CCNCC3)cc2F)n1` (stereo not shown) [Example C052, N-(4-(2-(4-chlorophenyl)but-3-yn-2-yl)-1H-imidazol-2-yl)-2,6-difluoro-4-(piperazin-1-yl)benzamide] gave a pIC50 against ALPK1 (setting [2]) of 7.36.

At ALPK1 (setting [2]), `C#CC(C)(c1ccc(Cl)cc1)c1csc(NC(=O)c2ccc(N3CCNCC3)cc2F)n1` (stereo not shown) [Example B094, N-(4-(2-(4-chlorophenyl)but-3-yn-2-yl)thiazol-2-yl)-2-fluoro-4-(piperazin-1-yl)benzamide] gave a pIC50 of 6.82.

Regarding `C#CC(C)(c1ccc(F)cc1)c1csc(NC(=O)c2c(F)cc(-c3cnn(C)c3N)cc2F)n1` (stereo not shown) [Example B102, 4-(5-amino-1-methyl-1H-pyrazol-4-yl)-2,6-difluoro-N-(4-(2-(4-fluorophenyl)but-3-yn-2-yl)thiazol-2-yl)benzamide], on ALPK1 (setting [2]), the pIC50 is 5.90.

As to `COCC(C)(c1ccc(Br)cc1)c1csc(NC(=O)c2c(F)cc(N3CCNCC3)cc2F)n1` (stereo not shown) [Example C027, N-(4-(2-(4-bromophenyl)-1-methoxypropan-2-yl)thiazol-2-yl)-2,6-difluoro-4-(piperazin-1-yl)benzamide], the pIC50 against ALPK1 (setting [2]) was 7.00.

With `Cc1ccc(C(C)(C)c2csc(NC(=O)c3ccc(N4CCNCC4)nc3)n2)cc1` [Example B045, 6-(piperazin-1-yl)-N-(4-(2-(p-tolyl)propan-2-yl)thiazol-2-yl)nicotinamide], the pIC50 against ALPK1 (setting [2]) was 7.52.

For the compound `COc1ccc(C(C)(C)c2csc(NC(=O)c3cccc(OCCCN4CCNCC4)c3)n2)cc1` [Example B023, N-(4-(2-(4-methoxyphenyl)propan-2-yl)thiazol-2-yl)-3-(3-(piperazin-1-yl)propoxy)benzamide], the pIC50 on ALPK1 (setting [2]) is 6.82.

`C#CC(C)(c1ccc(Cl)cc1)c1csc(NC(C)=O)n1` (stereo not shown) [Example D004, N-(4-(2-(4-chlorophenyl)but-3-yn-2-yl)thiazol-2-yl)acetamide] had a negative-log IC50 (pIC50) at ALPK1 (setting [2]) of 7.74.

`COc1ccc(C(C)(C)c2csc(NC(=O)c3ccc(NCCN(C)C)nc3)n2)cc1` [Example B056, 6-((2-(dimethylamino)ethyl)amino)-N-(4-(2-(4-methoxyphenyl)propan-2-yl)thiazol-2-yl)nicotinamide] had a pIC50 on ALPK1 (setting [2]) of 6.92.

Compound `COc1ccc(C(C)(C)c2csc(NC(=O)c3ccc(N4CCNCC4C)cc3)n2)cc1` (stereo not shown) [Example B014] had a pIC50 against ALPK1 (setting [2]) of 6.52.

In the case of `COCC(C)(c1ccc(Cl)cc1)c1csc(NC(=O)c2c(F)cc(N3CCNCC3)cc2F)n1` (stereo not shown) [Example C029, N-(4-(2-(4-chlorophenyl)-1-methoxypropan-2-yl)thiazol-2-yl)-2,6-difluoro-4-(piperazin-1-yl)benzamide], on ALPK1 (setting [2]), the negative-log IC50 (pIC50) is 6.89.

Values taken from patent publication US20240109853A1 (Shanghai Yao Yuan Biotechnology Co., Ltd., priority 2020, published 2024).
